20 molecules from patent publication US6566355B1 (Hoffmann-La Roche Inc., priority 1991, dated 2003) can be followed below.

For one assay, the target named is T1, β-lactamase (Citrobacter freundii, UniProt P05193).
T1 construct: Various β-lactamases can be isolated from penicillin- or cephalosporin-resistant bacterial strains such as; endogenous in cells; host or cells: Citrobacter freundii 1203 (enzyme purified from the crude cell extract, after ampicillin induction when necessary)
In words: biochemical. How it is done: A. Isolation of the β-lactamases
Various β-lactamases can be isolated from penicillin- or cephalosporin-resistant bacterial strains such as Klebsiella pneumoniae NCTC 418, Proteus vulgaris 1028, Bacillus licheniformis 749/C, Escherichia coli SN01 and Citrobacter freundii 1203. For this purpose, the corresponding strains are cultivated in Tryptic Soy Broth (Difco) and harvested by centrifugation in the last logarithmic growth phase (when necessary 50-100 mg/l of ampicillin are added to the medium towards the end of the log-phase in order to induce the β-lactamase). The thus-obtained bacterial mass is treated with 20 mM Tris-HCl buffer (pH 7.0); the cells are broken open with a French press while cooling. The mixture is centrifuged (20,000 r/min.) for 20-30 minutes and a clear crude extract is obtained.
B. Determination of the β-lactamase activity
The determination of the activity of the isolated β-lactamases can be carried out according to the method of O'Callaghan, C. H. et al. [Antimicr. Ag. Chemother., 1, 283-288 (1972)] using the chromogenic cephalosporin nitrocefin (87/312 from Glaxo). The requisite test batch contains per ml of water: 50 mM phosphate buffer (pH 7.0), 0.1 mM nitrocefin and sufficient enzyme (β-lactamase) to achieve a ΔA/min. of about 0.1. The cleavage of the substrate, which is accompanied by a change in colour, is effected at 37° C. and is followed quantitatively at 482 nm using a spectral photometer.
C. Determination of the β-lactamase-inhibiting activity of the compounds of general formula I
The above-described cleavage of the chromogenic substrate by β-lactamases (test B.) can be inhibited by the addition of compounds of general formula I (inhibitors). […] As a measurement for the affinity of the particular tested inhibitor to the β-lactamase, which is a measurement of the strength of the inhibitor, there serves that concentration which inhibits by 50% (IC 50 in nM) the cleavage of the substrate (nitrocefin) effected under the above test conditions (test B) in the absence of an inhibitor. […] The determination of the IC50 was effected by means of a graph.
(Test organism: Citrobacter freundii)

The test system of another assay is Citrobacter freundii. The assay is described as follows: MIC in vitro of a 1:4 combination of ceftriaxone with a compound of formula I (test D). The class given is cell-based. The note with it: 1:4 combination of ceftriaxone with the compound. How it is done:
D. Determination of the β-lactamase-inhibiting activity by combination of a compound of general formula I with ceftriaxone
The minimum inhibitory concentration in vitro (MIC in μg/ml) of a 1:4 combination of ceftriaxone with a compound of formula I against Citrobacter freundii is measured and compiled in Table 2 hereinafter.

The mark [1] stands for this setting: IC 50 nM, isolated β-lactamase of Citrobacter freundii, substrate nitrocefin 0.1 mM, 15 minutes pre-incubation with inhibitor, 37° C., pH 7.0.

Structures can show the parent of a compound that is named as a salt. Where two headings read alike, the source gives them in different places.

T1 sequence (P05193 21-381): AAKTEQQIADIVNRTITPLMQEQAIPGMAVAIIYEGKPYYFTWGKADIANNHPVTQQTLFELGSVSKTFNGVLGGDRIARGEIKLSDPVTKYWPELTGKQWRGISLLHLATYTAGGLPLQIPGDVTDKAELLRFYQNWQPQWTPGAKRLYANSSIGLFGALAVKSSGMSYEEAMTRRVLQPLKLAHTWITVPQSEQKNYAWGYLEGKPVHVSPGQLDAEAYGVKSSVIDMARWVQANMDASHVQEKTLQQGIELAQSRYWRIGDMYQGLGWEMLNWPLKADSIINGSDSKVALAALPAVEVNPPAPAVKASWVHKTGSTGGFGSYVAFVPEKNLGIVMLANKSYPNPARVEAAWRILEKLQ

Broadly, the IC50 is the concentration that gives 50% inhibition. A low value points to greater potency in that assay. The MIC is the smallest concentration in the dilution series that meets the test's criterion for growth inhibition. The molecule `O=C(O)C(C(=O)N1CC[C@@H]2[C@H]1C(=O)N2S(=O)(=O)O)c1ccsc1` (mixture of isomers) [6(e), (R/S)-α-(1S,5R)-2-[2-carboxy-2-(3-thienyl)acetyl]-7-oxo-2,6-diazabicyclo[3.2.0]heptane-6-sulphonic acid triethylamine salt (1:1)] gave an IC50 against β-lactamase of 465 nM. Moreover, the “MIC” value in the assay on Citrobacter freundii was determined as 4 µg/mL.

At β-lactamase, `NC(C(=O)N1CC[C@@H]2[C@H]1C(=O)N2S(=O)(=O)O)c1cccc(O)c1` (mixture of isomers) [6(q), (1S,5R)-2-[DL-2-(m-Hydroxyphenyl)glycyl]-7-oxo-2,6-diazabicyclo[3.2.0]heptane-6-sulphonic acid] yielded an IC50 of 375 nM. The “MIC” value in the assay with Citrobacter freundii was found to be 2 µg/mL.

In the case of `NC(C(=O)N1CC[C@@H]2[C@H]1C(=O)N2S(=O)(=O)O)c1ccc(O)cc1` (mixture of isomers) [6(s), (1S,5R)-2-[R,S-Amino-(4-hydroxyphenyl)-acetyl]-7-oxo-2,6-diazabicyclo[3.2.0]heptane-6-sulphonic acid sodium salt], the IC50 at β-lactamase stood at 584 nM. Moreover, the “MIC” value with Citrobacter freundii is 4 µg/mL.

`NC(C(=O)N1CC[C@@H]2[C@H]1C(=O)N2S(=O)(=O)[O-])c1ccccc1F.[Na+]` (mixture of isomers) [8(c), (1S,5R)-2-[DL-2-(o-Fluorophenyl)glycyl]-7-oxo-2,6-diazabicyclo[3.2.0]heptane-6-sulphonic acid sodium salt]: on β-lactamase (setting [1]), inhibition was half-maximal at 120 nM (IC50). The “MIC” value in the assay with Citrobacter freundii turned out to be 2 µg/mL.

In turn, `O=C1SCCC1NC(=O)N1CC[C@@H]2[C@H]1C(=O)N2S(=O)(=O)O` (mixture of isomers) [17(j), (1S,5R)-7-Oxo-2-(R,S)-(2-oxo-3-tetrahydrothienyl-carbamoyl)-2,6-diazabicyclo[3.2.0]heptane-6-sulphonic acid sodium salt] yielded a 50% inhibitory concentration (IC50) on β-lactamase of 79 nM. The minimum inhibitory concentration (MIC) in the assay on Citrobacter freundii came to 2 µg/mL.

`O=C(NC1CCS(=O)(=O)C1)N1CC[C@@H]2[C@H]1C(=O)N2S(=O)(=O)[O-].[Na+]` (mixture of isomers) [17(x), (1S,5R)-2-[(R) and (S)-1,1-Dioxo-tetrahydrothiophen-3-ylcarbamoyl]-7-oxo-2,6-diaza-bicyclo[3.2.0]heptane-6-sulfonic acid sodium salt] registered an IC50 against β-lactamase (setting [1]) of 199 nM. The “MIC” value with Citrobacter freundii came to 2 µg/mL.

On β-lactamase (setting [1]), `O=C(NCC1CCCO1)N1CC[C@@H]2[C@H]1C(=O)N2S(=O)(=O)[O-].[Na+]` (mixture of isomers) [17(y), (1S,5R)-2-[(R) and (S)-Tetrahydrofuran-2-ylmethylcarbamoyl]-7-oxo-2,6-diaza-bicyclo[3.2.0]heptane-6-sulfonic acid sodium salt] came in with an IC50 of 238 nM. In the assay on Citrobacter freundii, the “MIC” value is 1 µg/mL.

With `NC(C(=O)N1CC[C@@H]2[C@H]1C(=O)N2S(=O)(=O)O)c1cccs1` (single isomer, unassigned) [5(e), (1S,5R)-2-[(R or S)-α-Amino-(2-thienyl)acetyl]-7-oxo-2,6-diazabicyclo[3.2.0]heptane-6-sulphonic acid], the midpoint of inhibition against β-lactamase, the IC50, lay at 85 nM. Besides, in the assay with Citrobacter freundii, the “MIC” value was determined as 2 µg/mL.

As for `CC(=O)NC(C(=O)N1CC[C@@H]2[C@H]1C(=O)N2S(=O)(=O)O)c1ccccc1` (single isomer, unassigned) [5(g), (1S,5R)-2-[D- or L-N-Acetyl-2-phenylglycyl]-7-oxo-2,6-diazabicyclo[3.2.0]-heptane-6-sulphonic acid sodium salt], the IC50 against β-lactamase stood at 150 nM. For the same molecule, the “MIC” value in the assay with Citrobacter freundii came to 8 µg/mL.

On β-lactamase, `N[C@@H](C(=O)N1CC[C@@H]2[C@H]1C(=O)N2S(=O)(=O)O)c1ccccc1` [4(b), (1S,5R)-7-Oxo-2-(D-2-phenylglycyl)-6-2,6-diazabicyclo[3.2.0]heptane-6-sulphonic acid] had an IC50 of 250 nM. In the assay on Citrobacter freundii, the “MIC” value amounted to 2 µg/mL.

Molecule `N[C@H](C(=O)N1CC[C@@H]2[C@H]1C(=O)N2S(=O)(=O)O)c1ccccc1` [4(d), (1S,5R)-7-Oxo-2-(L-2-phenylglycyl)-2,6-diazabicyclo[3.2.0]heptane-6-sulphonic acid] showed an IC50 against β-lactamase of 275 nM. Further, the “MIC” value in the assay with Citrobacter freundii was 2 µg/mL.

At β-lactamase, `N[C@H](Cc1ccccc1)C(=O)N1CC[C@@H]2[C@H]1C(=O)N2S(=O)(=O)O` [4(f), (1S,5R)-7-Oxo-2-(3-phenyl-D-alanyl)-2,6-diazabicyclo[3.2.0]heptane-6-sulphonic acid] displayed an IC50 of 280 nM. Besides, the “MIC” value in the assay on Citrobacter freundii came to 4 µg/mL.

In turn, `O=C(CNc1ccccc1)N1CC[C@@H]2[C@H]1C(=O)N2S(=O)(=O)[O-].[Na+]` [5(b), (1S,5R)-7-Oxo-2-(N-phenylglycyl)-2,6-diazabicyclo[3.2.0]heptane-6-sulphonic acid sodium salt] came in with an IC50 against β-lactamase (setting [1]) of 110 nM. In the assay on Citrobacter freundii, the “MIC” value was 2 µg/mL.

`Nc1cccc(NCC(=O)N2CC[C@@H]3[C@H]2C(=O)N3S(=O)(=O)O)c1` [5(i), (1S,5R)-2-[N-(m-Aminophenyl)glycyl] -7-oxo-2,6-diazabicyclo[3.2.0]heptane-6-sulphonic acid]: on β-lactamase, the IC50 was 115 nM. In addition, the “MIC” value with Citrobacter freundii came to 2 µg/mL.

The molecule `Cn1nnnc1SCC(=O)N1CC[C@@H]2[C@H]1C(=O)N2S(=O)(=O)[O-].[Na+]` [5(j), (1S,5R)-2-[[(1-Methyl-1H-tetrazol-5-yl)-thio]acetyl]-7-oxo-2,6-diazabicyclo[3.2.0]heptane-6-sulphonic acid sodium salt] came in with an IC50 against β-lactamase (setting [1]) of 23 nM. Also, the minimum inhibitory concentration (MIC) in the assay with Citrobacter freundii was 0.5 µg/mL.

At β-lactamase (setting [1]), `O=C(COn1nnc2ccccc21)N1CC[C@@H]2[C@H]1C(=O)N2S(=O)(=O)[O-].[Na+]` [5(k), (1S,5R)-2-[[1H-Benzotriazol-1-yl)oxylacetyl]-7-oxo-2,6-diazabicyclo[3.2.0]-heptane-6-sulphonic acid sodium salt] registered an IC50 of 73 nM. In addition, the “MIC” value in the assay with Citrobacter freundii turned out to be 2 µg/mL.

On β-lactamase (setting [1]), `CC(C)n1nnc(CC(=O)N2CC[C@@H]3[C@H]2C(=O)N3S(=O)(=O)[O-])n1.[Na+]` [5(l), (1S,5R)-2-[(2-Isopropyl-2H-tetrazol-5-yl)-acetyl]-7-oxo-2,6-diazabicyclo[3.2.0]heptane-6-sulphonic acid sodium salt] gave an IC50 of 860 nM. In the assay on Citrobacter freundii, the “MIC” value worked out at 4 µg/mL.

`Cc1nnc(SCC(=O)N2CC[C@@H]3[C@H]2C(=O)N3S(=O)(=O)[O-])s1.[Na+]` [5(m), (1S,5R)-2-[[(5-Methyl-1,3,4-thiadiazol-2-yl)thio]acetyl]-7-oxo-2,6-diazabicyclo[3.2.0]heptane-6-sulphonic acid sodium salt] yielded an IC50 against β-lactamase (setting [1]) of 24 nM. In addition, the “MIC” value in the assay with Citrobacter freundii was found to be 0.5 µg/mL.

Regarding `O=C(COc1ccc(O)nn1)N1CC[C@@H]2[C@H]1C(=O)N2S(=O)(=O)[O-].[Na+]` [5(p), (1S,5R)-2-[(6-Hydroxy-pyridazin-3-yloxy)-acetyl]-7-oxo-2,6-diazabicyclo[3.2.0]heptane-6-sulfonic acid sodium salt], on β-lactamase (setting [1]), the IC50 came out at 178 nM. In the assay on Citrobacter freundii, the minimal inhibitory concentration (MIC) stood at 1 µg/mL.

For the molecule `O=C(CSc1nnnn1-c1ccccc1)N1CC[C@@H]2[C@H]1C(=O)N2S(=O)(=O)O` [5(q), (1S,5R)-7-Oxo-2-[(1-phenyl-tetrazol)-5-ylsulfanyl-acetyl]-2,6-diazabicyclo[3.2.0]heptane-6-sulfonic acid sodium salt], the midpoint of inhibition against β-lactamase, the IC50, lay at 5 nM. In the assay on Citrobacter freundii, the “MIC” value was 2 µg/mL.
